Here are results for 15 compounds from patent publication US4101552A, “Novel lysergic acid amides and process for preparing same” (Richter Gedeon Vegyeszeti Gyar Rt., priority 1975, dated 1978).

Each structure is given as a SMILES string.

The subject of one data set is blood pressure of cats. The data set is described as follows: Antihypertensive effect: blood pressure of anaesthetized cats. In kind it is in vivo, cat. Here is the method: Antihypertensive effect
Method: the blood pressure of cats anaesthetized with
intraperitoneally administered 30 mg/kg of pento-
barbital was measured in the left femoral artery
by means of the Statham P 23 db manometer and re-
corded on Hellige polygraph. The compounds were
administered into the right femoral vein.
Number of animals: 2 to 5 per dose.

In another data set the test system is serotonin oedema. The data set is described as follows: Antiserotonin effect in vivo: rat-sole oedema (serotonin oedema blocking).
The next data set concerns reserpine hypothermia. The data set is described as follows: Antidepressant test: antagonization of reserpine hypothermia. It is filed as in vivo. The conditions noted are these: 30 mg/kg, intraperitoneally. The protocol:
Antidepressant effect (Δt, ° C) and acute toxicity
Antidepressant test: antagonization of reserpine hypothermia
Dose: 30 mg/kg, intraperitoneally
Δt, ° C: change in body temperature compared to that of
Description of the method: ASKEW, B.M., Life Sci. 10, 725

The next data set deals with isolated rat uterus. The data set is described as follows: Antiserotonin effect in vitro on isolated rat uterus. The following applies: read-out: In vitro ED50 (antiserotonin effect). The source says: It is characteristic of the compound that its effect is well measurable even after oral administration, indicating its ready peroral absorption.
In vitro: on isolated rat uterus
Description of the method; GADDUM, J. H. and HAMMED, L. A.: […]

Data set [1] has as its system renal circulation, cerebral blood-vessels, blood-vessels of other organs. Nature of the data set: Effect on renal circulation and blood-vessels of organs. The conditions noted are these: in vivo. The protocol:
(§1) It is characteristic of one of the compounds of the present invention and having a hypotensive action that when administered in intravenous doses of 0.1 to 0.5 mg/kg to cats and dogs in pentothal anaesthesia it provokes a permanent decrease of 20 to 60 mmHg in blood pressure (Table 3). […] It might therefore be assumed that the hypotensive effect of the compound according to the invention is the result of its inhibiting effect on the sympathetic cerebral centres. These properties are the most characteristic of the dihydro-lysergic-acid-(3'-/pyrrolid-2"-on-1"-yl/-propyl)-amide bimaleate (Example 1).

For data set [2], the system named is hypertension produced by stimulation of the baroreceptors and the central vagus stump. Nature of the data set: Inhibition of hypertension produced by stimulation of the baroreceptors and the central vagus stump. The following applies: in vivo. The protocol: as §1
The test system of data set [3] is acute hypertension produced by the infusion of angiotensin. The data set is described as follows: Inhibition of acute hypertension produced by infusion of angiotensin. The following applies: in vivo.
Data set [4] has as its system alpha- or beta-sympatholytic, ganglion-blocking or adrenergic neuron-blocking action. Nature of the data set: Sympatholytic, ganglion-blocking and adrenergic neuron-blocking action. The conditions noted are these: in vivo. The protocol: as §1
For data set [5], the system named is catecholamine content of the organs. Nature of the data set: Catecholamine content of the organs. The following applies: in vivo.
Data set [6] in a line: Acute toxicity: LD50 on mice after 24 hours. The conditions noted are these: mouse, in vivo. The protocol: Acute toxicity: LD50 on mice after 24 hours.
Description of the method: […], J.T.jr. and
WILCOXON, F.J., Pharmacol. exp.

Setting [7] is: po, rat-sole oedema, peroral, serotonin creatinine sulphate 5 μg per sole in 0.1 ml.
Setting [8] is: sc, rat-sole oedema, subcutane, serotonin creatinine sulphate 5 μg per sole in 0.1 ml.

Regarding `CN1C[C@H](C(=O)N[C@]2(C)O[C@@]3(O)[C@@H]4CCCN4C(=O)[C@H](Cc4ccccc4)N3C2=O)C[C@@H]2c3cccc4[nH]cc(c34)C[C@H]21` [Dihydroergotamine, reference compound], in the data set with blood pressure of cats (0.2 mg/kg i.v.), the “Decrease in blood pressure” value is -25 mmHg and the “Decrease in blood pressure, duration” value came to 0.5 h.
For the compound `CC[C@@H](CO)NC(=O)[C@@H]1C=C2c3cccc4c3c(cn4C)C[C@H]2N(C)C1` (racemic) [Deseryl, N-[1-(hydroxymethyl)propyl]-1-methyl-d-/+/-lysergamide, reference compound], the 50% effect level in the data set with serotonin oedema (setting [7]) (ED50) was put at a dose of 0.64 mg/kg. Also, in the data set with serotonin oedema (rat-sole oedema, subcutane, serotonin creatinine sulphate 5 μg per sole in 0.1 ml), the “Serotonin oedema blocking effect ED50” value is reported as 0/026.
Turning to `CN1C[C@H](C(=O)Nc2nccs2)C[C@@H]2c3cccc4c3c(cn4C)C[C@H]21` [Example 9, 1-Methyl-9,10-dihydrolysergic-acid-(thiazol-2'-yl)-amide bimaleate], the “Antidepressant effect, Δt (change in body temperature compared to that of the control)” value in the data set on reserpine hypothermia amounted to 4.7 °C. In the data set on isolated rat uterus, the IC50 turned out to be 500 ng/mL. Besides, it took a dose of 1 mg/kg to reach the 50% effect level with serotonin oedema (setting [7]) (ED50). For the same compound, it took a dose of 0.03 mg/kg to reach the 50% effect level with serotonin oedema (setting [8]) (ED50). Besides, in the data set on blood pressure of cats (1.0 mg/kg i.v.), the “Decrease in blood pressure” value was -20 mmHg and the “Decrease in blood pressure, duration” value is 1.5 h.
In the case of `CN1C[C@H](C(=O)NCCCN2CCCC2=O)C[C@@H]2c3cccc4[nH]cc(c34)C[C@H]21` [Example 1, 9,10-Dihydrolysergic-acid-(3'-/pyrrolid-2"-on-1"-yl/-propyl)-amide bimaleate], in [1], the “effect on cerebral blood-vessels and blood-vessels of other organs” value is recorded as “does not cause a constriction of the cerebral blood-vessels or a substantial change in the blood-vessels of other organs”; the renal circulation entry is reported as “tends to improve renal circulation”. Besides, the “inhibition of hypertension produced by stimulation of the baroreceptors and the central vagus stump” value in [2] was “inhibits hypertension produced by the stimulation of the baroreceptors and the central vagus stump”. Moreover, in data set [3], the “inhibition of acute hypertension produced by infusion of angiotensin” value is on record as “inhibits acute hypertension produced by the infusion of angiotensin”. The “alpha- or beta-sympatholytic, ganglion-blocking or adrenergic neuron-blocking action” value in data set [4] is recorded as “no alpha- or beta-sympatholytic, ganglion-blocking or adrenergic neuron-blocking action”. The “catecholamine content of the organs” value in [5] is listed as “does not alter the catecholamine content of the organs”.
Regarding `CSc1cccc(NC(=O)[C@@H]2C=C3c4cccc5[nH]cc(c45)C[C@H]3N(C)C2)c1` [Example 13, Lysergic-acid-(3'-methyl-mercapto)-anilide bimaleate], the “Antidepressant effect, Δt (change in body temperature compared to that of the control)” value with reserpine hypothermia amounted to 7.0 °C.
On to `C=CCOCC(O)CNC(=O)[C@@H]1C=C2c3cccc4[nH]cc(c34)C[C@H]2N(C)C1` (stereo partly shown) [Example 6, Lysergic-acid-(3'-allyloxy-2'-oxy-propyl)-amide bimaleate], for which, in the data set on reserpine hypothermia, the “Antidepressant effect, Δt (change in body temperature compared to that of the control)” value was determined as 5.4 °C. Moreover, the median lethal dose (LD50) (commonly the dose at which mortality reaches 50%) at 24 h in data set [6] (ip, intraperitoneally) came out at 110 mg/kg; in data set [6] (po, orally), 205 mg/kg.
With `CN1C[C@H](C(=O)NC2=NCCS2)C[C@@H]2c3cccc4[nH]cc(c34)C[C@H]21` [Example 5, 9,10-Dihydrolysergic-acid-(thiazolin-2'-yl)-amide bimaleate], in the data set with reserpine hypothermia, the “Antidepressant effect, Δt (change in body temperature compared to that of the control)” value amounted to 3.6 °C. Moreover, the IC50 with isolated rat uterus was determined as 500 ng/mL. The median effective dose (ED50) – broadly, the dose at which the effect has come halfway, by size or by number of responders – was determined as 3 mg/kg with serotonin oedema (setting [7]) and 0.3 mg/kg in the data set on serotonin oedema (setting [8]).
In the case of `CN1C[C@H](C(=O)Nc2cccc3ncccc23)C=C2c3cccc4[nH]cc(c34)C[C@H]21` [Example 10, Lysergic-acid-(quinolin-5-yl)-amide bimaleate], in the data set on reserpine hypothermia, the “Antidepressant effect, Δt (change in body temperature compared to that of the control)” value was 3.9 °C.
`Cc1ccc(NC(=O)[C@@H]2C=C3c4cccc5[nH]cc(c45)C[C@H]3N(C)C2)c(F)c1` [Example 12, Lysergic-acid-(2'-fluoro-4'-methyl-phenyl)-amide bimaleate]: the “Antidepressant effect, Δt (change in body temperature compared to that of the control)” value in the data set on reserpine hypothermia is 6.9 °C. In [6] (ip, intraperitoneally), the LD50 at 24 h is 30 mg/kg.
`Cc1cc(O)ccc1NC(=O)[C@@H]1C[C@@H]2c3cccc4c3c(cn4C)C[C@H]2N(C)C1` [Example 14, 1-Methyl-9,10-dihydrolysergic-acid-(4'-m-cresyl)-amide bimaleate]: the “Antidepressant effect, Δt (change in body temperature compared to that of the control)” value with reserpine hypothermia was 3.4 °C. In addition, the IC50 in the data set with isolated rat uterus was 0.5 ng/mL. Moreover, the 50% effective dose (ED50) in the data set on serotonin oedema (setting [7]) is 3 mg/kg; with serotonin oedema (setting [8]) it was 0.3 mg/kg.
As for `CN1C[C@H](C(=O)NC2=NCCS2)C[C@@H]2c3cccc4c3c(cn4C)C[C@H]21` [Example 4, 1-Methyl-9,10-dihydrolysergic-acid-(2'-thiazolin-2'-yl)-amide bimaleate], in the data set with reserpine hypothermia, the “Antidepressant effect, Δt (change in body temperature compared to that of the control)” value was 4.1 °C. The median lethal dose (LD50) at 24 h in data set [6] (ip, intraperitoneally) was 330 mg/kg; in [6] (po, orally) it was 315 mg/kg. Besides, in the data set with isolated rat uterus, the IC50 was 0.05 ng/mL. In addition, in the data set with serotonin oedema (peroral), the “peroral efficacy (in words)” value is “particularly favourable peroral efficacy”. Also, the “peroral efficacy relative to Deseryl” value with serotonin oedema (peroral, surpassing the efficacy of Deseryl) is recorded as “about 3.5 times”. For the same compound, the results for the ED50 in the data set on serotonin oedema (setting [7]) and in the data set with serotonin oedema (setting [8]) were 0.12 mg/kg and 0.022 mg/kg, respectively.
Take `CN1C[C@H](C(=O)NCCCN2CCCC2=O)C[C@@H]2c3cccc4c3c(cn4C)C[C@H]21` [Example 3, 1-Methyl-9,10-dihydrolysergic-acid(3'-/pyrrolid-2"-on-1"-yl/propyl)-amide bimaleate]: the IC50 with isolated rat uterus was determined as 5 ng/mL. The same compound displayed a median effective dose (ED50) in the data set on serotonin oedema (setting [7]) of 1.5 mg/kg. Moreover, the ED50 with serotonin oedema (setting [8]) came to 0.3 mg/kg. For the same compound, in the data set on blood pressure of cats (0.5 mg/kg i.v.), the “Decrease in blood pressure” value is on record as -30 mmHg and the “Decrease in blood pressure, duration” value worked out at 2.0 h.
As for `CN1C[C@H](C(=O)Nc2ccnn2-c2ccccc2)C=C2c3cccc4[nH]cc(c34)C[C@H]21` [Example 11, Lysergic-acid-(1'-phenyl-pyrazol-5'-yl)-amide bimaleate], in the data set on reserpine hypothermia, the “Antidepressant effect, Δt (change in body temperature compared to that of the control)” value was found to be 2.9 °C.
As for `CN1C[C@H](C(=O)NCCCN2CCCC2=O)C=C2c3cccc4[nH]cc(c34)C[C@H]21` [Example 2, Lysergic-acid-(3'-/pyrrolid-2"-on-1"-yl/-propyl)-amide bimaleate], the “Antidepressant effect, Δt (change in body temperature compared to that of the control)” value in the data set with reserpine hypothermia was determined as 3.5 °C. Further, in the data set with blood pressure of cats (0.5 mg/kg i.v.), the “Decrease in blood pressure” value was -50 mmHg and the “Decrease in blood pressure, duration” value stood at 1.5 h.
Take `CN1C[C@H](C(=O)Nc2nccs2)C=C2c3cccc4[nH]cc(c34)C[C@H]21` [Example 7, Lysergic-acid-(thiazol-2'-yl)-amide bimaleate]: in the data set on reserpine hypothermia, the “Antidepressant effect, Δt (change in body temperature compared to that of the control)” value came to 8.0 °C.
